In US10555919B2, “Melatonin in autoimmune disease” (The Brigham and Women's Hopsital, Inc., priority 2014, dated 2020):

What was measured:
[1] = tested on: murine Th17 cell differentiation; assay: In vitro mouse Th17 cell differentiation; type: cell-based; conditions: for differentiation of Th17 cells (rorc, IL-17, IL-23 receptor): wild type, melatonin 2 ng/ml, agomelatine 20 ng/ml, ramelteon 10 ng/ml, CGP 52608 20 ng/ml
Experimental: For intracellular cytokine staining, cells were stimulated for 4 h at 37° C. with phorbol 12-myristate 13-acetate (50 ng/ml; Sigma), ionomycin (1 μg/ml; Sigma) and monensin (GolgiStop; 1 μg/ml; BD Biosciences). After being stained for surface markers, cells were fixed and made permeable according to the manufacturer's instructions (BD Biosciences). All antibodies against cytokines were from Biolegend. All experiments were started at the same time (8-9 am). Data were collected with a LSR II or FACSAria (BD Biosciences), then were analyzed with FlowJo software (Treestar).
(§1) Naive CD4+ T cells (CD4+CD44loCD62LhiCD25−) were from the spleen and lymph node of C57BL/6 wild-type, MTNR1A−, NFIL3−, REV-ERBα, C/EBPα-deficient or RORα-deficient mice using magnetic beads (CD4+ T cell isolation kit, Miltenyi Biotec). All experiments were started between 7 and 9 am. Cells were activated with plate-bound anti-CD3 (2 μg/ml; 14-0031-86; eBioscience) and anti-CD28 (2 μg/ml; 16-0281-86; eBioscience). Mouse IL-27 (30 ng/ml; 34-8271; Biolegend) was added for the generation of Tr1 cells. IL-6 (30 ng/ml; 406-ML-025; R&D Systems), TGF-β1 (15 ng/ml; 130-095-067; Miltenyi Biotec), anti-IL-4 (2.5 μg/ml; C17.8; Biolegend) and anti-IFN-γ (5 μg/ml; XMG1.2; Biolegend) were added for the generation of Th17 cells. Recombinant mouse IL-23 (30 ng/ml; 1887-ML-010; R&D Systems) was added at day 2. For some experiments IL-6 and […] (10 ng/ml; 401-ML-025; R&D Systems) or TGF-β1 and IL-21 (100 ng/ml; 594-ML-010; R&D Systems) were used in instead for Th17 cell differentiation. IL-12 (30 ng/ml; 419-ML-010; R&D Systems) and anti-IL-4 (2.5 μg/ml; C17.8; Biolegend) were used for the generation of Th1 cells. IL-4 (30 ng/ml; 404-ML-010; R&D Systems) and anti-IFN-γ (5 μg/ml; XMG1.2; Biolegend) was added for the generation of Th2 cells. TGF-β1 (15 ng/ml; 130-095-067; Miltenyi Biotec) was used for the generation of Foxp3+ Tregs. Melatonin (Gador, Argentina), Agomelatin, and CGP-52608 (Sigma-Aldrich) were added at the start of the cultures and at day 2, at a final concentration of 2-20 ng/ml.
(§2) Secreted cytokines were measured in tissue culture supernatants after 72-96 hs by enzyme-linked immunosorbent assay as previously described (Farez et al., 2009).

[2] = tested on: Tr1 cells; assay: In vitro mouse Tr1 cell differentiation; type: cell-based; conditions: agomelatine 20 ng/ml, CGP 52608 20 ng/ml
Experimental: as §1

[3] = target: T1, MT2 melatonin receptor (Homo sapiens, UniProt P49286); conditions: nonselective ligand; cited from earlier work
T1 sequence (P49286 1-362): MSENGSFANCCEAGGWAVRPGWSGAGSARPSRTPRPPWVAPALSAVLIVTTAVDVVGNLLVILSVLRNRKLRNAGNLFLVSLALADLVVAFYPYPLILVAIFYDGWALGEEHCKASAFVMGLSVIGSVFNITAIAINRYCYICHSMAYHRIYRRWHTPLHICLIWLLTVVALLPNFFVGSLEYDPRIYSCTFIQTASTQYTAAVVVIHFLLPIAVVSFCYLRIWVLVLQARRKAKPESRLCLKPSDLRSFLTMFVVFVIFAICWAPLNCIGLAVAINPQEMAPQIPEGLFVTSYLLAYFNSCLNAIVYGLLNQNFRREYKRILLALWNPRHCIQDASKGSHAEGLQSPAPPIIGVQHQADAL

[4] = tested on: human Th1 cells; assay: In vitro human Th1 differentiation; type: cell-based; conditions: 500 ng/ml; IL-12
Experimental: (§3) In vitro human T cell differentiation. For Th17 differentiation, naive CD45RA+ CD4+ T cells were isolated from PBMCs with magnetic beads (Naive Human CD4+ T Cell Isolation Kit II, Miltenyi Biotec) and seeded at a density of 5×10^5 cells/ml in 24-well plates coated with anti-CD3 and (2 μg/ml) and soluble anti-CD28 and cultured in the presence of the following cytokines IL-1β (25 ng/ml), IL-6 (50 ng/ml), and TGF-β1 (2 ng/ml) and neutralizing antibodies to IFN-g ([…]) and IL-4 (10 microgram/ml). Alternatively, Th17 cells were differentiated by using IL-1β (25 ng/ml), IL-6 (50 ng/ml), and IL-23 (50 ng/ml) and neutralizing antibodies to IFN-g ([…]) and IL-4 (10 microgram/ml). For Th1 differentiation naïve CD4+T cells are cultured in the presence of IL-12 (20 ng/ml) and anti-IL-4 (10 μg/ml).

[5] = tested on: human CD4+ T cells activated under Th17 polarizing conditions; assay: In vitro human Th17 differentiation; type: cell-based; conditions: 500 ng/ml
Experimental: as §3, §2

[6] = tested on: human CD4+ T cells activated under Tr1 polarizing conditions; assay: In vitro human Tr1 differentiation; type: cell-based; conditions: 500 ng/ml
Description: We then studied the effects of melatonin on human CD4^+ T cells. In addition, we also analyzed the effects of agomelatine, which activates melatonin-dependent signaling (Hickie and Rogers, 2011). Based on the effects of melatonin administration on T cells during EAE, we focused our studies on human Th17 and Tr1 cells. Melatonin and agomelatine reduced the production of IL-17, RORC and IL17A expression by human CD4^+ T cells activated under Th17 polarizing conditions (FIGS. 3a-c and FIG. 8), no effect was detected on the differentiation of human Th1 cells (FIGS. 3d-f). Concomitantly, melatonin and agomelatine increased IL10 expression.

[7] = tested on: nr1d1 reporter-transfected HEK293 cells; assay: nr1d1 promoter luciferase reporter assay; type: cell-based; conditions: nr1d1 promoter controls luciferase expression
Description: The IL-10 promoter reporter and C-Maf and AhR vectors were previously described (Apetoh et al., 2010), vector expressing ROR-α were purchased from PlasmID at Harvard Medical School. Vectors coding for C/EBPα (44627) and Bmal reporter (46824) were purchased from Addgene. The retrovirus used for nfil3 overexpression in T cells was graciously provided by Laura Hooper (UT Southwestern, TX, USA). The retrovirus used for nr1d1 overexpression in T cells was graciously provided by Bart Staels (Institut Pasteur, Lille, France, […]). The nr1d1 promoter reporter was graciously provide by Vincent Laudent (Ecole Normale Supérieure, Lyon, France).
HEK293 cells were grown in DMEM supplemented with 10% FBS and were transfected with FuGENE HD transfection reagent and 2 μg of each plasmids according the manufacturer's instructions (Roche). Firefly and renilla luciferase activity was analyzed 48 h after transfection and 24 h after treatment with a Dual Luciferase Assay kit (Promega).

Structure (SMILES): C=CCN1C(=O)CS/C1=N/NC(=S)NC [CGP 52608]
- differentiation of Th17 cells (rorc, IL-17, IL-23 receptor) [1]: boosted
- Tr1 cell differentiation [2]: boosted

Structure (SMILES): CC(=O)NCCc1c(Cc2ccccc2)[nH]c2ccccc12 [Luzindole, N-[2-(2-benzyl-1H-indol-3-yl)ethyl]acetamide]
- higher affinity for the MT2 melatonin receptor [3]: 15- to 25 fold

Structure (SMILES): CCOC(=O)N1CCC(CN(Cc2ccc(Cl)cc2)Cc2ccc([N+](=O)[O-])s2)C1 (stereo not drawn) [SR9009]
- differentiation into Th17 cells (RT-PCR) ([1]; SR9009 5 micromolar, 72 hr): suppresses

Structure (SMILES): COc1ccc2cccc(CCNC(C)=O)c2c1 [agomelatine, N-[2-(7-methoxynaphthalen-1-yl)ethyl]acetamide]
- differentiation of human Th1 cells [4]: no effect
- production of IL-17, RORC and IL17A expression [5]: reduced
- IL10 expression ([5]; Th17 polarizing conditions): increased
- differentiation of Th17 cells (rorc, IL-17, IL-23 receptor) [1]: suppressed
- IL-10 production [6]: increased
- Tr1 cell differentiation [2]: boosted
- luciferase activity [7]: decreased

Structure (SMILES): CCC(=O)NCC[C@@H]1CCc2ccc3c(c21)CCO3 [ramelteon, (S)—N-[2-(1,6,7,8-tetrahydro-2H-indeno[5,4-b]furan-8-yl)ethyl]propionamide]
- differentiation of Th17 cells (rorc, IL-17, IL-23 receptor) [1]: suppressed
